Measured values: PubChem BioAssay AID1963851 (Molecular Pharmacology Branch, DTP, NCI, 2024)
Several values for one entry are separate records, joined by “and”; a condition that tells them apart may be missing. Equal entries are not always repeated.

System: 188146-221-R-J1-PDC complex spheroid viability
Assay: Anticancer human tumor 188146-221-R-J1-PDC patient-derived colon adenocarcinoma cell line growth inhibition [POLQ]
Conditions: for viability, T/C: stronger effect = lower value
Description: Multicellular complex tumor spheroid response to Polymerase (POL) inhibitors (novobiocin, ART-558, RP6685) in combination with a variety of drugs and investigational agents in selected tumor cell lines
The POL inhibitors (novobiocin, ART-558, and RP6685) were evaluated both individually and in combination with standard of care and investigational anticancer small molecules within a complex spheroid model of solid tumors. . Complex spheroids include a stromal component modeled by human endothelial cells (HUVEC) and fibroblasts modeled by human mesenchymal stem cells (MSCs). The concentration ranges selected for each drug and investigational agent were based upon clinically achievable concentrations if the clinical Cmax of the agent was known.
Compounds. The drugs and investigational agents: novobiocin (NSC847541), ART-558 (NSC835418), RP-6685 (NSC848927), peposertib (NSC802822), ceralasertib (NSC780249), elimusertib (NSC800525), camonsertib (NSC841442), AZD-1390 (NSC803789), olaparib (NSC753686), talazoparib (NSC767125), rucaparib (NSC756644), sotorasib (NSC818433), MRTX-1133 (NSC836407), SN-38 (NSC673596), topotecan (NSC609699), epotoside (NSC141540), doxorubicin (NSC123127), gemcitabine (NSC613327), 5-fluorouracil (NSC19893), paclitaxel (NSC125973), vemurafenib (NSC761431), MSA-2 (NSC828583), SN-011 (NSC837082), adavosertib (NSC754352), prexasertib (NSC758257), carboplatin (NSC241240) and oxaliplatin (NSC266046), were obtained from the National Cancer Institute (NCI) Developmental Therapeutics Program Chemical Repository (21). The FDA-approved anticancer drug set is available from the Developmental Therapeutics Program at https://dtp.cancer.gov/organization/dscb/obtaining/. […] The stock solutions were prepared in dimethyl sulfoxide (DMSO, Sigma-Aldrich, St. Louis, MO, cat. D2650), except for the platinum compounds which were prepared in saline (Quality Biological, Gaithersburg, MD, cat. 114-055-101), at 800-fold the tested concentration and stored at -70 degrees C prior to their use. All drugs and investigational agents were tested over a range starting from a high concentration at or near the clinical Cmax and decreasing in half-log increments. If the clinical Cmax for an agent had not been determined, the highest concentration tested was 10 microM, except for SN-38, which was tested at a high concentration of 1 microM.
Cell Culture. All cells were maintained in an incubator at 37 degrees C and 5% CO2 with 95% humidity. The PDC lines were cultured according to standard operating procedures established by the NCI PDMR (https://pdmr.cancer.gov). Table 3 of the manuscript, lists the cell lines along with the number of the three cell types plated to form the mct-spheroids and media for tumor cell growth. After thawing, all PDC lines, except 997537-175-T-J1-PDC and 415267-285-R-J2-PDC, were cultured in Matrigel-coated flasks prepared with a working solution of 1X Ham's F-12 nutrient mix, without supplementation (Thermo Fisher Scientific, cat. 11765054), 100 U/mL penicillin-streptomycin (Thermo Fisher Scientific, cat. 15140122), and 2.5% Matrigel (Corning Inc., Corning, NY, cat. 354248) for the first three passages. The two PDC lines 997537-175-T-J1-PDC and 415267-285-R-J2-PDC were cultured on uncoated flasks. The 857933-349-R-J2-PDC line was cultured in 6C/Colon 1B media containing advanced DMEM/F-12 (Thermo Fisher Scientific, cat. 12634028), 10 mM HEPES (Thermo Fisher Scientific, cat. 15630080), 1X GlutaMAX supplement (Thermo Fisher Scientific, cat. 35050061), 0.1 mg/mL primocin (InvivoGen, San Diego, CA, cat. ant-pm-2), 10% defined fetal bovine serum, heat inactivated (HyClone Laboratories Inc., Logan, UT, cat. SH30070.03HI), 50% L-WRN conditioned media (ATCC, cat. CRL-3276), 1.25 mM N-Acetyl-L-cysteine (Sigma-Aldrich, cat. A9165), 10 mM nicotinamide (Sigma-Aldrich, cat. N0636), 1X B-27 supplement (Thermo Fisher Scientific, cat. 17504044), 1X N-2 supplement (Thermo Fisher Scientific, cat. […]
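Further: spheroids exposed to compounds for seven days.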
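Wherever viability, T/C is given: 100% = DMSO vehicle control viability.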

## CNCc1ccc(-c2[nH]c3cc(F)cc4c3c2CCNC4=O)cc1 + Nc1ccc(C#CCN(C(=O)Cc2ncc(C(F)(F)F)cc2C(F)(F)F)c2ccc(F)cc2)nn1
Curve of first compound, second compound 0.0316 µM
  IC50: > 10 µM
Curve of first compound, second compound 0.1 µM
  IC50: > 10 µM
Curve of first compound, second compound 0.316 µM
  IC50: > 10 µM
Curve of first compound, second compound 1 µM
  IC50: > 10 µM
Curve of first compound, second compound 3.16 µM
  IC50: > 10 µM
Curve of first compound, second compound 10 µM
  IC50: > 10 µM
Second compound 0.0316 µM, first compound 0.0316 µM
  viability, T/C: 114%
Second compound 0.0316 µM, first compound 0.1 µM
  viability, T/C: 107%
Second compound 0.0316 µM, first compound 0.316 µM
  viability, T/C: 109%
Second compound 0.0316 µM, first compound 1 µM
  viability, T/C: 106%
Second compound 0.0316 µM, first compound 3.16 µM
  viability, T/C: 103%
Second compound 0.0316 µM, first compound 10 µM
  viability, T/C: 120%
Second compound 0.1 µM, first compound 0.0316 µM
  viability, T/C: 111%
Second compound 0.1 µM, first compound 0.1 µM
  viability, T/C: 104%
Second compound 0.1 µM, first compound 0.316 µM
  viability, T/C: 100%
Second compound 0.1 µM, first compound 1 µM
  viability, T/C: 113%
Second compound 0.1 µM, first compound 3.16 µM
  viability, T/C: 108%
Second compound 0.1 µM, first compound 10 µM
  viability, T/C: 116%
Second compound 0.316 µM, first compound 0.0316 µM
  viability, T/C: 114%
Second compound 0.316 µM, first compound 0.1 µM
  viability, T/C: 100%
Second compound 0.316 µM, first compound 0.316 µM
  viability, T/C: 85.3%
Second compound 0.316 µM, first compound 1 µM
  viability, T/C: 110%
Second compound 0.316 µM, first compound 3.16 µM
  viability, T/C: 123%
Second compound 0.316 µM, first compound 10 µM
  viability, T/C: 119%
Second compound 1 µM, first compound 0.0316 µM
  viability, T/C: 106%
Second compound 1 µM, first compound 0.1 µM
  viability, T/C: 99.2%
Second compound 1 µM, first compound 0.316 µM
  viability, T/C: 93.5%
Second compound 1 µM, first compound 1 µM
  viability, T/C: 111%
Second compound 1 µM, first compound 3.16 µM
  viability, T/C: 104%
Second compound 1 µM, first compound 10 µM
  viability, T/C: 100%
Second compound 3.16 µM, first compound 0.0316 µM
  viability, T/C: 102%
Second compound 3.16 µM, first compound 0.1 µM
  viability, T/C: 94.7%
Second compound 3.16 µM, first compound 0.316 µM
  viability, T/C: 99.5%
Second compound 3.16 µM, first compound 1 µM
  viability, T/C: 109%
Second compound 3.16 µM, first compound 3.16 µM
  viability, T/C: 110%
Second compound 3.16 µM, first compound 10 µM
  viability, T/C: 103%
Second compound 10 µM, first compound 0.0316 µM
  viability, T/C: 114%
Second compound 10 µM, first compound 0.1 µM
  viability, T/C: 115%
Second compound 10 µM, first compound 0.316 µM
  viability, T/C: 112%
Second compound 10 µM, first compound 1 µM
  viability, T/C: 108%
Second compound 10 µM, first compound 3.16 µM
  viability, T/C: 120%
Second compound 10 µM, first compound 10 µM
  viability, T/C: 130%

## CC(=O)O[C@H]1C(=O)[C@@]2(C)[C@H]([C@H](OC(=O)c3ccccc3)[C@]3(O)C[C@H](OC(=O)[C@H](O)[C@@H](NC(=O)c4ccccc4)c4ccccc4)C(C)=C1C3(C)C)[C@]1(OC(C)=O)CO[C@@H]1C[C@@H]2O
Compound 0.00949 µM
  viability, T/C: 58.2% and 63% and 74.9%
Compound 0.03 µM
  viability, T/C: 20.7% and 18.6% and 27.6%
Compound 0.0949 µM
  viability, T/C: 13.3% and 12.8% and 9.47%
Compound 0.3 µM
  viability, T/C: 11.7% and 11.9% and 11.2%
Compound 0.949 µM
  viability, T/C: 15.4% and 12.2% and 9.82%
Compound 3 µM
  viability, T/C: 13.5% and 12.8% and 9.87%
Curve of compound
  IC50: 0.0122 µM and 0.0133 µM and 0.0174 µM

## C=CC(=O)N1CCN(c2nc(=O)n(-c3c(C)ccnc3C(C)C)c3nc(-c4c(O)cccc4F)c(F)cc23)C(C)C1 (stereo not drawn)
Compound 0.0316 µM
  viability, T/C: 113% and 101% and 99.7%
Compound 0.1 µM
  viability, T/C: 104% and 89.7% and 107%
Compound 0.316 µM
  viability, T/C: 95.9% and 90.8% and 87.1%
Compound 1 µM
  viability, T/C: 109% and 113% and 108%
Compound 3.16 µM
  viability, T/C: 92.2% and 92.1% and 101%
Compound 10 µM
  viability, T/C: 68% and 102% and 77.7%
Curve of compound
  IC50: > 10 µM

## CNCc1ccc(-c2[nH]c3cc(F)cc4c3c2CCNC4=O)cc1
Compound 0.0316 µM
  viability, T/C: 111% and 108% and 115%
Compound 0.1 µM
  viability, T/C: 108% and 97.9% and 106%
Compound 0.316 µM
  viability, T/C: 102% and 109% and 99.4%
Compound 1 µM
  viability, T/C: 105% and 104% and 103%
Compound 3.16 µM
  viability, T/C: 112% and 105% and 113%
Compound 10 µM
  viability, T/C: 100% and 99.3% and 95.5%
Curve of compound
  IC50: > 10 µM
